Measurements as given in patent US20220403001A1, “PDE5 DERIVED REGULATORY CONSTRUCTS AND METHODS OF USE IN IMMUNOTHERAPY” (Obsidian Therapeutics, Inc., priority 2018, published 2022).
Several values for one entry are separate records, joined by “and”; a condition that tells them apart may be missing. Equal values may be shown once.

Assays:
hPDE5 mutants [1] = target: T1, hPDE5 mutants (Homo sapiens, UniProt O76074); assay: Western blot of AcGFP/GFP protein levels in HCT 116 cells expressing hPDE5 mutants; assay type: cell-based; design: GFP protein levels (western blot); fused on or other part: AcGFP reporter through a linker; conditions: vardenafil vs DMSO, HCT 116, R732 mutants
Method: Protein expression analysis of the combination mutants was performed in parallel via western blot. […] GAPDH levels were also analyzed to ensure even protein loading.

hPDE5 mutants [2] = assay: GFP MFI by FACS in HCT116 cells transduced with hPDE5 constructs; assay type: cell-based, human; conditions: for GFP by FACS, Sildenafil 0 μM (DMSO): HCT116, DMSO control of Sildenafil; for GFP by FACS, Vardenafil 0 μM (DMSO): HCT116, DMSO control of Vardenafil
Method: (§1) Desirable qualities of a DD include, low expression of the SRE in the absence of ligand and ligand dependent stabilization of the SRE. Constructs were generated using DDs linked to GFP using an SG linker. […] The mean fluorescence intensity (MFI) of GFP was analyzed by FACS. […] Destabilizing mutation coefficient less than 1 are desirable.
(§2) Mean fluorescence intensity (MFI) was measured by FACS. […] Destabilizing mutation coefficient ratios less than 1 are desirable.
(§3) Mean fluorescence intensity (MFI) was measured by FACS. […] Destabilizing mutation co-efficient ratios less than 1 are desirable.
(§4) Mean fluorescence intensity (MFI) was measured by FACS. […] Destabilizing mutation coefficient less than 1 are desirable.
as §4
(§5) Mean fluorescence intensity (MFI) of GFP was measured by FACS.
(§6) Mean fluorescence intensity (MFI) was measured by FACS.
(§7) The media containing the ligand was removed and fresh media without the ligand was added.
(§8) The properties of the DDs were analyzed in the presence and absence of ligands via FACS as previously described.
(§9) GFP fluorescence was measured by FACS.
(§10) The properties of the DDs were analyzed via FACS both in the presence and absence of ligands.
as §9

hPDE5 mutants [3] = target: T1, hPDE5 mutants; assay: as above; assay type: cell-based; conditions: for GFP by FACS, Sildenafil 10 μM / GFP by FACS, Vardenafil 1 μM: HCT116
Method: as §1, §2, §3, §4, §4, §5, §6, §7, §8, §9, §10, §9

hPDE5 mutants [4] = assay: GFP expression (MFI) by FACS in HEK293 cells expressing hPDE5 constructs
Method: The mutant library was ligated in frame with an AcGFP reporter at C-terminus and cloned into pLVX-IRES—Puro vectors. […] DNA was extracted from the cell pool, cloned into vectors, and transformed into E. coli. Individual clones were sequenced and cloned in frame with a linker [sequence] […] HEK293 cells were transduced with individual clones and selected with puromycin.
The GFP expression in cells expressing hPDE5 constructs was measured by FACS.
The stability of hPDE5 mutants was measured using FACS and mean fluorescence intensity (MFI) of GFP was calculated.

hPDE5 mutants [5] = assay: GFP FACS analysis of hPDE5 mutant library clones in NIH3T3 cell pools
Method: (§11) These constructs were packaged into lentivirus, transduced into NIH3T3 cells and select stable cell pools were derived as described below. […] Lentiviral stocks were used for transduction of NIH3T3 cells and subsequent cell pool selection. The day before transduction, NIH3T3 cells (1.8×10^6) were seeded in a T-25 flask and allowed to reach 60-70% confluency (˜1 day). The growth medium in the T-25 flask was then replaced with 1 mL virus (quickly thawed in a 37° C. water bath) and 5 μg/mL polybrene. […] Transduction medium was removed the following day and replaced with 5 mL fresh medium. At 48 hr after transduction, the medium was replaced with media containing 1 μg/mL puromycin. This puromycin medium was replaced every 3-4 days until cell pools were established (˜2 weeks).
(§12) The mean fluorescence intensity (MFI) of GFP at 100 μM concentration treatment was set as 100% hPDE5 stabilization effect (HPE), while DMSO treatment was set as 0% effect (ZPE) of hPDE5 stabilization. The effect of the compound on hPDE5 stabilization was calculated based on the following formula: % PDE5 stabilization effect=(MFI-ZPE)/(HPE-ZPE)×100.
(§13) Plots of the % effect versus concentration were generated with Graphpad Prism 5 and EC50 values were calculated using a four-parameter nonlinear regression model.
(§14) Select PDE5 clones from both experiment 1 and experiment 2 were directly compared. […] The stabilization ratio was calculated as the fold change in GFP intensity in ligand treated samples compared to treatment with DMSO (i.e. in the absence of ligand) with the same construct.

hPDE5 mutants [6] = target: T1, hPDE5 mutants; assay: as above; conditions: for Stabilization ratio: GFP intensity 10 μM vardenafil vs DMSO
Method: as §11, §12, §13, §14

[7] = hotspot constructs, 1 μM Vardenafil
[8] = hotspot constructs, 10 μM Sildenafil
[9] = Sildenafil 0.0005 μM, 48 h, HEK293
[10] = Sildenafil 3.33 μM, 48 h, HEK293
[11] = Sildenafil 10 μM, 48 h, HEK293 (dose titration)
[12] = Sildenafil 10 μM, 48 h, HEK293 (time course)
[13] = Vardenafil 0.0005 μM, 48 h, HEK293
[14] = Vardenafil 3.33 μM, 48 h, HEK293
[15] = Vardenafil (10 μM), 48 h, Table 25, cell line not given in table
[16] = GFP intensity ligand treated vs DMSO, direct comparison of clones

## OT-001200: hPDE5 R732Q AcGFP construct
hPDE5 mutants [1]
  GFP protein levels (western blot): strong stabilization of GFP levels
hPDE5 mutants [2]; hotspot constructs, DMSO control of Sildenafil, vs OT-001075
  Sildenafil Destabilizing mutation coefficient: 0.36
hPDE5 mutants [2]; hotspot constructs, DMSO control of Vardenafil, vs OT-001075
  Vardenafil Destabilizing mutation coefficient: 1.89
hPDE5 mutants [2]; hotspot constructs
  GFP by FACS, Sildenafil 0 μM (DMSO): 353
  GFP by FACS, Vardenafil 0 μM (DMSO): 305
hPDE5 mutants [3]; [7]
  Vardenafil Stabilization ratio: 0.95
hPDE5 mutants [3]; [8]
  Sildenafil Stabilization ratio: 1.57
hPDE5 mutants [3]; hotspot constructs
  GFP by FACS, Sildenafil 10 μM: 553
  GFP by FACS, Vardenafil 1 μM: 289

## OT-001083: hPDE5-Y728L AcGFP construct
hPDE5 mutants [4]; [9]
  MFI: 4422
  Stabilization ratio: 1.01
hPDE5 mutants [4]; [10]
  MFI: 17960
  Stabilization ratio: 4.09
hPDE5 mutants [4]; Sildenafil 10 μM, 2 h, HEK293
  MFI: 7290
  Stabilization ratio: 1.37
hPDE5 mutants [4]; Sildenafil 10 μM, 4 h, HEK293
  MFI: 8675
  Stabilization ratio: 1.64
hPDE5 mutants [4]; Sildenafil 10 μM, 6 h, HEK293
  MFI: 10929
  Stabilization ratio: 2.06
hPDE5 mutants [4]; Sildenafil 10 μM, 16 h, HEK293
  MFI: 19034
  Stabilization ratio: 3.59
hPDE5 mutants [4]; Sildenafil 10 μM, 24 h, HEK293
  MFI: 27246
  Stabilization ratio: 5.14
hPDE5 mutants [4]; [11]
  MFI: 32480
  Stabilization ratio: 7.40
hPDE5 mutants [4]; [12]
  MFI: 34796
  Stabilization ratio: 6.56
hPDE5 mutants [4]; [13]
  MFI: 7894
  Stabilization ratio: 0.99
hPDE5 mutants [4]; [14]
  MFI: 134306
  Stabilization ratio: 16.85
hPDE5 mutants [4]; Vardenafil 10 μM, 48 h, HEK293
  MFI: 166236
  Stabilization ratio: 20.86
hPDE5 mutants [4]; Vardenafil (1 μM), 48 h, Table 25, cell line not given in table
  Stabilization ratio: 13.26
hPDE5 mutants [4]; Vardenafil (1 μM), 48 h, Table 25, cell line not given in table (HEK293, HCT-116, SKOV-3)
  MFI: 68816
hPDE5 mutants [4]; [15]
  MFI: 123150
  Stabilization ratio: 23.72

## OT-001075: hPDE5 wildtype construct, catalytic domain linked to AcGFP, control
hPDE5 mutants [5]; DMSO (no ligand), SDF series, experiment 1
  GFP FACS analysis (MFI): 3140
hPDE5 mutants [5]; DMSO (no ligand), TDF series, experiment 1
  GFP FACS analysis (MFI): 9511
hPDE5 mutants [5]; DMSO (no ligand), VDF series, experiment 1
  GFP FACS analysis (MFI): 7545
hPDE5 mutants [5]; SDF 1.235 μM, experiment 1
  GFP FACS analysis (MFI): 5740
  Percent stabilization effect: 66.0%
hPDE5 mutants [5]; SDF 3.704 μM, experiment 1
  GFP FACS analysis (MFI): 6480
  Percent stabilization effect: 84.7%
hPDE5 mutants [5]; SDF 11.111 μM, experiment 1
  GFP FACS analysis (MFI): 6848
  Percent stabilization effect: 94.1%
hPDE5 mutants [5]; SDF 11.111 μM, experiment 2
  Percent stabilization effect: 49.7% and 88.2%
hPDE5 mutants [5]; SDF 33.333 μM, experiment 1
  GFP FACS analysis (MFI): 7025
  Percent stabilization effect: 98.6%
hPDE5 mutants [5]; SDF 33.333 μM, experiment 2
  Percent stabilization effect: 79.3% and 96.0%
hPDE5 mutants [5]; SDF 100 μM (set as 100%), experiment 1
  Percent stabilization effect: 100.0%
hPDE5 mutants [5]; SDF 100 μM (set as 100%), experiment 2
  Percent stabilization effect: 100.0%
hPDE5 mutants [5]; SDF 100 μM, experiment 1
  GFP FACS analysis (MFI): 7082
hPDE5 mutants [5]; SDF 100 μM, experiment 2
  GFP FACS analysis (MFI): 39638 and 65696
hPDE5 mutants [5]; TDF 1.235 μM, experiment 1
  GFP FACS analysis (MFI): 6211
  Percent stabilization effect: −560.3%
hPDE5 mutants [5]; TDF 3.704 μM, experiment 1
  GFP FACS analysis (MFI): 7039
  Percent stabilization effect: −419.7%
hPDE5 mutants [5]; TDF 11.111 μM, experiment 1
  GFP FACS analysis (MFI): 7388
  Percent stabilization effect: −360.4%
hPDE5 mutants [5]; TDF 11.111 μM, experiment 2
  GFP FACS analysis (MFI): 89646 and 143351
  Percent stabilization effect: 101.2% and 136.4%
hPDE5 mutants [5]; TDF 33.333 μM, experiment 1
  GFP FACS analysis (MFI): 7688
  Percent stabilization effect: −309.5%
hPDE5 mutants [5]; TDF 33.333 μM, experiment 2
  GFP FACS analysis (MFI): 97813 and 136420
  Percent stabilization effect: 110.9% and 123.3%
hPDE5 mutants [5]; TDF 100 μM (set as 100%), experiment 1
  Percent stabilization effect: 100.0%
hPDE5 mutants [5]; TDF 100 μM (set as 100%), experiment 2
  Percent stabilization effect: 100.0%
hPDE5 mutants [5]; TDF 100 μM, experiment 1
  GFP FACS analysis (MFI): 10100
hPDE5 mutants [5]; TDF 100 μM, experiment 2
  GFP FACS analysis (MFI): 88657 and 124011
hPDE5 mutants [5]; VDF 1.235 μM, experiment 1
  GFP FACS analysis (MFI): 7393
  Percent stabilization effect: −3.4%
hPDE5 mutants [5]; VDF 1.235 μM, experiment 2
  GFP FACS analysis (MFI): 32753 and 47543
  Percent stabilization effect: 46.3% and 46.8%
hPDE5 mutants [5]; VDF 3.704 μM, experiment 1
  GFP FACS analysis (MFI): 7592
  Percent stabilization effect: 1.1%
hPDE5 mutants [5]; VDF 3.704 μM, experiment 2
  GFP FACS analysis (MFI): 36347 and 49859
  Percent stabilization effect: 52.0% and 52.6%
hPDE5 mutants [5]; VDF 11.111 μM, experiment 1
  GFP FACS analysis (MFI): 7964
  Percent stabilization effect: 9.4%
hPDE5 mutants [5]; VDF 11.111 μM, experiment 2
  GFP FACS analysis (MFI): 39279 and 50082
  Percent stabilization effect: 56.6% and 53.2%
hPDE5 mutants [5]; VDF 33.333 μM, experiment 1
  GFP FACS analysis (MFI): 8854
  Percent stabilization effect: 29.4%
hPDE5 mutants [5]; VDF 33.333 μM, experiment 2
  GFP FACS analysis (MFI): 44931 and 53578
  Percent stabilization effect: 65.5% and 62.0%
hPDE5 mutants [5]; VDF 100 μM (set as 100%), experiment 1
  Percent stabilization effect: 100.0%
hPDE5 mutants [5]; VDF 100 μM (set as 100%), experiment 2
  Percent stabilization effect: 100.0%
hPDE5 mutants [5]; VDF 100 μM, experiment 1
  GFP FACS analysis (MFI): 12000
hPDE5 mutants [5]; VDF 100 μM, experiment 2
  GFP FACS analysis (MFI): 66821 and 68646
hPDE5 mutants [5]; after treatment with sildenafil or vardenafil, NIH3T3
  Fold increase in MFI: ~1.5 fold
hPDE5 mutants [6]; experiment 1
  Stabilization ratio: 1.6 and 1.5 and 1.4
hPDE5 mutants [6]; experiment 2
  Stabilization ratio: 1.5
hPDE5 mutants [6]; [16]
  Stabilization ratio Sildenafil: 1.05
  Stabilization ratio Tadalafil: 1.50
  Stabilization ratio Vardenafil: 1.78
hPDE5 mutants [6]; GFP, cell pools, 10 μM vardenafil 24 hr, experiment 2
  Mean fluorescence intensity (MFI) 10 μM VDF: 45616 and 43134
hPDE5 mutants [6]; GFP, cell pools, no ligand (DMSO), experiment 2
  Mean fluorescence intensity (MFI) DMSO: 30404 and 29006
hPDE5 mutants [6]; median GFP fluorescence by FACS, 10 μM Sildenafil, direct comparison of clones
  Fluorescence intensity Sildenafil: 7082
hPDE5 mutants [6]; median GFP fluorescence by FACS, 10 μM Tadalafil, direct comparison of clones
  Fluorescence intensity Tadalafil: 10100
hPDE5 mutants [6]; median GFP fluorescence by FACS, 10 μM Vardenafil, direct comparison of clones
  Fluorescence intensity Vardenafil: 12000
hPDE5 mutants [6]; median GFP fluorescence by FACS, vehicle DMSO (no ligand), direct comparison of clones
  Fluorescence intensity DMSO: 6732
hPDE5 mutants [2]; GFP, DMSO 48 h, HCT-116
  MFI DMSO: 42973
hPDE5 mutants [2]; hotspot constructs
  GFP by FACS, Sildenafil 0 μM (DMSO): 989
  GFP by FACS, Vardenafil 0 μM (DMSO): 161
hPDE5 mutants [3]; 10 μM, 48 h, HCT-116
  Sildenafil Stabilization ratio: 1.25
  Vardenafil Stabilization ratio: 1.15
hPDE5 mutants [3]; GFP, 10 μM Sildenafil 48 h, HCT-116
  MFI Sildenafil: 53736
hPDE5 mutants [3]; GFP, 10 μM Vardenafil 48 h, HCT-116
  MFI Vardenafil: 49344
hPDE5 mutants [3]; [7]
  Vardenafil Stabilization ratio: 1.83
hPDE5 mutants [3]; [8]
  Sildenafil Stabilization ratio: 0.22
hPDE5 mutants [3]; hotspot constructs
  GFP by FACS, Sildenafil 10 μM: 219
  GFP by FACS, Vardenafil 1 μM: 294
